Results as given in PubChem BioAssay (NCI).
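Cultured in 96-well plates, cells were exposed to test compound for 48 hours across five concentrations. At the GI50, growth is halved. TGI: total growth inhibition.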

Columns and labels:
Assay in all cases: NCI anticancer screen, dose series, 48 h
[1] = tested on: A549 NSCLC
[2] = tested on: HCT-116 colon
[3] = tested on: KM12 colon
[4] = tested on: LOX IMVI melanoma
[5] = tested on: NCI-H522 lung
[6] = tested on: RXF 393 renal
[7] = tested on: SF-268 CNS
[8] = tested on: SF-539 CNS
[9] = tested on: SK-MEL-5 melanoma
[10] = tested on: SNB-19 CNS

SMILES | GI50 [1] [µM] | TGI [1] [µM] | GI50 [2] [µM] | TGI [2] [µM] | GI50 [3] [µM] | TGI [3] [µM] | GI50 [4] [µM] | TGI [4] [µM] | GI50 [5] [µM] | TGI [5] [µM] | GI50 [6] [µM] | TGI [6] [µM] | GI50 [7] [µM] | TGI [7] [µM] | GI50 [8] [µM] | TGI [8] [µM] | GI50 [9] [µM] | TGI [9] [µM] | GI50 [10] [µM] | TGI [10] [µM]
COc1cc2c3c(n(CCCN4CCN(C)CC4)c(=O)c2cc1OC)-c1cc2c(cc1C3=O)OCO2 | 18.7 | 84.2 | 1.49 | 11.5 | 12.8 | 29 | 3.81 | 20.4 | 15.4 | 45.4 | 20.5 | 55 | 11.9 | 41.8 | 17.7 | 38.2 | 14.2 | 32.2 | > 100 | > 100
Cn1ccc(=Nc2ccc(NC(=O)c3ccc(N=c4ccn(C)c5ccc([N+](=O)[O-])cc45)cc3)cc2)cc1 | 7.31 | > 100 | 3.76 | > 100 | 7.26 | > 100 | 5.37 | > 100 | 6.88 | > 100 | 21.4 | 44.6 | 4.37 | 98.2 | 6.21 | 73.2 | 20.3 | > 100 | 0.923 | > 100
Nc1ccc(C#Cc2cncnc2Nc2ccc(OCc3cccc(F)c3)c(Cl)c2)cc1 | 8.58 | > 25 | 10.6 | > 25 | 10.2 | > 25 | 12.8 | > 25 | 4.94 | > 23.2 | 5 | > 25 | 16.5 | > 25 | > 15.8 | > 25 | > 15.8 | > 25 | > 14.3 | > 25
O=C1c2ccccc2S(=O)(=O)N1CSC(=S)N1CCCC1 | > 88.5 | > 100 | 63.8 | > 100 | > 100 | > 100 | > 100 | > 100 | 12.1 | > 100 | > 100 | > 100 | > 100 | > 100 | > 100 | > 100 | > 27.6 | > 100 | > 100 | > 100
COC(=O)c1ccccc1NC(=O)C(=O)CC(=O)c1ccccc1NC1=CC(=O)C(=O)c2ccccc21 |  | 41 |  | 20 |  | 52.8 |  | 4.76 |  | 21.4 |  | 57.5 |  | 30.3 |  | 46.2 |  | 14.2 |  | 77.5
CC(CN)[C@@H]1CC[C@]2(CO)CC[C@]3(C)[C@H](CC[C@@H]4[C@@]5(C)CCC(NCCO)C(C)(C)[C@@H]5CC[C@]43C)[C@@H]12 (stereo not given in full) | 1.68 | 3.08 | 1.66 | 3.41 | 1.9 | 4.14 | 1.64 | 3.12 | 1.67 | 3.27 | 1.51 | 2.97 | 1.75 | 3.94 | 1.61 | 3.02 | 1.76 | 3.19 | 1.8 | 3.54
O=C(O)CCC1COc2ccccc2O1 (stereo not given) |  | > 10 |  | > 10 |  | > 10 |  | > 10 |  | > 10 |  | > 10 |  | > 10 |  | > 10 |  | > 10 |  | > 10
CN1CCN(c2ccc(-c3cnc4c(-c5csc6ccccc56)cnn4c3)cc2)CC1 | 3.11 | 11.4 | 3.15 | > 15 | 4.59 | > 15 | 2.65 | 5.4 | 8.15 | > 15 | 3.5 | 10.7 | > 15 | > 15 | 2.36 | 4.62 | 2.48 | 4.54 | 9.25 | > 15
Cc1ccc(S(=O)(=O)N2CCC3(C(/C=C/c4ccccc4)=Nc4ccccc43)C2c2ccccc2)cc1 (stereo not given) |  | > 100 |  | > 100 |  | > 100 |  | > 100 |  | > 100 |  | > 100 |  | > 100 |  | > 100 |  | > 100 |  | > 100
N#C/C(=C/c1cccnc1)C(=O)c1ccccc1 |  | > 100 |  | > 100 |  | > 100 |  | > 100 |  | > 100 |  | > 100 |  | > 100 |  | > 100 |  | > 100 |  | > 100
